Experimental data reported in patent publication US20060183773A1, “Uses of methylphenidate derivatives” (priority 2005, published 2006).

Experiments:
Type in all cases: cell-based, human
[1] = system: TCR-positive cells; assay: Annexin staining of TCR-positive PBL, flow cytometry (cell death)
Experimental: After this incubation, PHA was added to give a final concentration of 5 μg/ml, and the cells were incubated for an additional 72 hours at 37° C., 5% CO2. All cultures were performed in triplicate. Cells were then removed by centrifugation at 1000 rpm for 10 minutes.
The cells were further analyzed by flow cytometry. Annexin was used to determine populations of dead or dying cells. Anti-CD69 antibody was used to establish the level of cellular activation. Antibody to T-cell receptor αβ (TCR) was also used. Recombinant Annexin 5 (PE and FITC conjugates) and the antibodies were all purchase from Caltag (Burlingham, Calif.) and used following the manufacturer's recommendations.

[2] = system: NFκB; assay: Activated NFκB in TNFα- or VEGF-treated HIAECs, TransAM assay
Experimental: Then, the amount of NFκB was determined using a TransAM™ NFκB p65/NFκB p50 Transcription Factor Assay Kit and a Nuclear Extract Kit from Active Motif North America, Carlsbad, Calif., according to the manufacturer's instructions. Briefly, a nuclear extract of the cells was prepared using the Nuclear Extract Kit. Then, the nuclear extract was added to the wells of the 96-well plate of the TransAM™ kit. Oligonucleotide containing an NFκB consensus binding site was immobilized in the wells, and the activated NFκB contained in the nuclear extract was bound to the oligonucleotide. Then, an antibody directed against the NFκB p65 or p50 subunit was added, and the NFκB complex bound to the oligonucleotide was detected. A secondary antibody conjugated to horseradish peroxidase (HRP) was next added to provide a colorimetric readout that was quantified by spectrophotometry (measurement at 450 nm).
Passage 8 (human iliac artery endothelial cells (HIAECs) (obtained from ATCC; catalog no. CC-2545) were grown to confluence in 25 cm^2 flasks in EGM-2 medium. Eighteen hours prior to the experiment, the medium was replaced with EGM-2 medium containing 0.1% FCS plus heparin, GA1000 (gentamycin) and bovine pituitary extract (all from Cambrex) to place the cells in a resting state. To perform the experiment the medium was aspirated from the flasks, and the following additives were added to the flasks in fresh medium (total volume of 5 ml/flask): 15 μg/ml of the compound of formula II (Cpd II) or 10 μM LY 294002. The flasks were incubated 2 hours at 37° C., 5% CO2 After this incubation, VEGF or TNFα was added to give a final concentration 10 ng/ml, and the flasks were incubated for an additional 30 minutes. Then, the amount of NFκB was determined using a TransAM™ NFκB p65/NFκB p50 Transcription Factor Assay Kit and a Nuclear Extract Kit from Active Motif North America, Carlsbad, Calif., as described in Example 9.

[3] = system: RAS; assay: RAS activation pulldown assay in TRiPS cells; details: CD3/CD28 beads + 15 μg/ml
Experimental: Day 10 TRiPS cells, 1×10^6, were incubated with 15 μg/ml of the compound of formula II (Cpd II) for 1 hour at 37° C. Then, the cells were incubated with CD3/CD28 beads (1 μl per 100,000 cells) (obtained from Dynal) for 10 minutes at 37° C. The cells were then lysed with a mild buffer (supplied with Pierce EZ-Detect activation kit described below) to produce cell extracts. Protein concentrations of the resulting extracts were determined by bicinchoninic acid (BCA) assay (Pierce) and placed on ice for immediate use.
Pulldown assays were performed using Pierce EZ-Detect activation kits according to the manufacturer's instructions utilizing GST-RAF-1-RBD and GST-RalGDS-RBD for RAS and RAP-1 respectively. Briefly, 400 μg total protein from each extract was combined with recombinant protein and glutathione resin and incubated at 4° C. for one hour with gentle shaking. The resin was then washed to remove unbound protein and the activated RAS and RAP-1 proteins were removed by boiling in the presence of SDS-PAGE loading dye containing reducing agent. RAS and RAP-1 western blots were performed to visualize the proteins using antibodies supplied with the kit. Densitometry of the X-ray films was done by scanning and computer analysis.

[4] = system: JNK1; assay: Custom AntibodyArray, TRiPS cells: JNK1; details: 15 μg/ml, 30 minutes
Experimental: (§1) Day 18 TRiPS cells, 1×10^6, were incubated for 30 minutes at 37° C., either with nothing added (“Nil”), with 1 μl CD3/CD28 Dynabeads (Dynal, Oslo, Norway) (“CD3/CD28 beads”) per 100,000 cells, or with CD3/CD28 beads and 15 μg/ml of the compound of formula II (Cpd II). After the incubation, the cells were lysed in Cell-Lytic Mammalian Cell Extraction Reagent (Sigma). After centrifugation to pellet cellular debris, the supernatants (cell extracts) were obtained.
(§2) The cell extracts (supernatants) were then analyzed using a Custom AntibodyArray™ manufactured by Hypromatrix Inc., Worcester, Mass., following the manufacturer's instructions. The Custom AntibodyArray™ is a nylon membrane blotted with antibodies to the proteins listed below. Briefly, the cell extracts were incubated with duplicate Custom AntibodyArray™'s for 2 hours at room temperature with slow shaking, followed by three washes with Tris buffer (150 mM NaCl, 25 mM Tris, 0.05% Tween-20, pH 7.5). HRP-labeled antibodies specific for phosphorylated-tyrosine, phosphorylated-serine and phosphorylated-threonine in Tris buffer were added, and the arrays incubated for 2 hours. After three more washes with Tris buffer, a peroxidase-reactive luminescent substrate was added. The arrays were visualized by exposure to X-ray film. Densitometry of the X-ray films was measured by scanning and computer analysis.

[5] = system: IkB-ε; assay: Custom AntibodyArray, TRiPS cells: IkB-ε; details: 15 μg/ml, 30 minutes
Experimental: as §1, §2

[6] = system: IkB-α; assay: Custom AntibodyArray, TRiPS cells: IkB-α; details: 15 μg/ml, 30 minutes
Experimental: as §1, §2

[7] = system: STAT2; assay: Custom AntibodyArray, TRiPS cells: STAT2; details: 15 μg/ml, 30 minutes
Experimental: as §1, §2

[8] = system: HUVECs; assay: Cell death of HUVECs in the TNFα/IL-8 experiment; details: highest dose (30 μg/ml)
Experimental: Passage 4 HUVECs, human source lot number 8710 (obtained from ATCC), were put into the wells of a 24-well tissue culture plate at 5,000 cells/well in EGM-2 medium (obtained from Cambrex) and cultured for 72 hours at 37° C. and 5% CO2. […] After incubation for 1 hour at 37° C. and 5% CO2, TNFα (obtained from Pierce) was added to give a final concentration of 10 ng/ml, and the cells were incubated for an additional 18 hours at 37° C. and 5% CO2. After this incubation, the supernatants were collected, and the amount of IL-8 in the supernatants determined by ELISA as described in Example 4.

COC(=O)C(c1ccc(-c2ccccc2)cc1)C1CCCCN1 (stereo not shown) [Cpd II]
Annexin staining of TCR-positive cells ([1]; 15 μg/ml, no PHA, background 7.3%): 23%
Annexin staining of TCR-positive cells ([1]; 50 μg/ml, no PHA, background 7.3%): 45%
Annexin staining of TCR-positive cells ([1]; PHA 5 μg/ml plus 15 μg/ml, PHA alone 67%): 62%
Annexin staining of TCR-positive cells ([1]; PHA 5 μg/ml plus 50 μg/ml, PHA alone 67%): 87%
Mean OD 450 nm (NFκB) ([2]; TNFα 10 ng/ml + 15 μg/ml, control 0.174, TNFα only 0.881): 0.302 ± 0.003
Mean OD 450 nm (NFκB) ([2]; VEGF 10 ng/ml + 15 μg/ml, control 0.174, VEGF only 0.220): 0.066 + 0.005
inhibition of RAS protein (in words) [3]: very strong inhibition of RAS protein
Integrated Optical Density for RAS assay ([3]; no treatment 66.83, beads only 245.91): 84.98
Effect of Cpd II on the protein in CD3/CD28 stimulated TRiPS cells [4]: Decreased level back to basal levels (Nil control)
Effect of Cpd II on the protein in CD3/CD28 stimulated TRiPS cells [5]: Slightly decreased the level
Effect of Cpd II on the protein in CD3/CD28 stimulated TRiPS cells [6]: Slightly decreased the level
Effect of Cpd II on the protein in CD3/CD28 stimulated TRiPS cells [7]: No effect
cell death [8]: some cell death
